Usually IC50 stands for the concentration needed to halve the response being measured. As usually defined, the inhibition is the relative decrease from the control value, in per cent.

We go through 18 molecules from patent US8853230B2, “Inhibitors of JAK” (Portola Pharmaceuticals, Inc., priority 2009, dated 2014).

The target of one experiment is T1, JAK1 (Homo sapiens, UniProt P23458).
T1 construct: 5 μl of catalytic domain recombinant Kinase enzyme+Tyr peptide substrate (Invitrogen, Calif.); purchased Invitrogen
T1 sequence (P23458 875-1153 limits assumed): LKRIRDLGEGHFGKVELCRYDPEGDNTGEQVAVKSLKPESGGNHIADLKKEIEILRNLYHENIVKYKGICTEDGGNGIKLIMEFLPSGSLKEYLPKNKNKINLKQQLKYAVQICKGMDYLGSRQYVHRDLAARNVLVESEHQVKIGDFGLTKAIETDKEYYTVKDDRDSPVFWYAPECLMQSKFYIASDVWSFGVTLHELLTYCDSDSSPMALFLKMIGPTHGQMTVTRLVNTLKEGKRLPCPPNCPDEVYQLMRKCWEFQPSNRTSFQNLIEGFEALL
Put plainly: Z'-LYTE kinase assay, JAK1 tyrosine phosphorylation activity. The settings on record: read-out: JAK 1 IC50. It counts as biochemical. In a few lines:
(§1)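 Catalytic domain + Tyr6 peptide + ATP + cpd (1% DMSO), 1 h RT; development protease 1 h RT; FRET ex 400/em 445, 520 nm; % phosphorylation vs no-inhibitor; IC50 by 4-parameter logistic; duplicates.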

A further experiment concerns the target T2, JAK2 (Homo sapiens, UniProt O60674).
T2 construct: 5 μl of catalytic domain recombinant Kinase enzyme+Tyr peptide substrate (Invitrogen, Calif.); purchased Invitrogen
Put plainly: Z'-LYTE kinase assay, JAK2 tyrosine phosphorylation activity. It counts as biochemical. Put shortly: as §1

In the next experiment the target is T3, JAK3 (Homo sapiens, UniProt P52333).
T3 construct: 5 μl of catalytic domain recombinant Kinase enzyme+Tyr peptide substrate (Invitrogen, Calif.); purchased Invitrogen
T3 sequence (P52333 822-1111 limits assumed): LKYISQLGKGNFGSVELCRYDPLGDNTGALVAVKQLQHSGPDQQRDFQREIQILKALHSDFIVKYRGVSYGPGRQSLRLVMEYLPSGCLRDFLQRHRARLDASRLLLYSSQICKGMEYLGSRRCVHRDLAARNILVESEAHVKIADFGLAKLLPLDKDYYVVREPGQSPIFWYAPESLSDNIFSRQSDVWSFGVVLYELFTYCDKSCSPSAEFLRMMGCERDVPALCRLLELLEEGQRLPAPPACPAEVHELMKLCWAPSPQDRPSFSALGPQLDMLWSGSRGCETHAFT
In words: Z'-LYTE kinase assay, JAK3 tyrosine phosphorylation activity. It counts as biochemical. In a few lines:
as §1

The target of a further experiment is T4, TYK2 (Homo sapiens, UniProt P29597).
T4 construct: 5 μl of catalytic domain recombinant Kinase enzyme+Tyr peptide substrate (Invitrogen, Calif.); purchased Invitrogen
T4 sequence (P29597 897-1176 limits assumed): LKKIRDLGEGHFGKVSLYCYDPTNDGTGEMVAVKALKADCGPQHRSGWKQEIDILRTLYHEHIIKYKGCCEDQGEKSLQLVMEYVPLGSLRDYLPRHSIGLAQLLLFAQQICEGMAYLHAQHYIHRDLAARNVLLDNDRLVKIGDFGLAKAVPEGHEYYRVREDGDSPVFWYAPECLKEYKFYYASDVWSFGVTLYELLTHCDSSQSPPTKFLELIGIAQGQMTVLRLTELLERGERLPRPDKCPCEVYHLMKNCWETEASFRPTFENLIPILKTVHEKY
Put plainly: Z'-LYTE kinase assay, TYK2 tyrosine phosphorylation activity. The class given is biochemical. In a few lines:
as §1

The subject of experiment [1] is IL4-induced phospho STAT6 formation in Ramos B lymphocytes. In words: Inhibition of IL4-induced phospho STAT6 formation in Ramos B lymphocytes (flow cytometry). The class given is cell-based, human. The settings on record: Homo sapiens; for inhibition at 0.2 µM: 200 nM compound, read-out: % Inhibition of IL-4 Induced STAT6 Phosphorylation 200 nM; for inhibition at 1 µM: 1 μM compound, read-out: % Inhibition of IL-4 Induced STAT6 Phosphorylation 1 μM. Put shortly: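 Human Ramos B cells (0.5 million) pre-incubated 1 h at 37°C/5% CO2 with compound or DMSO, then stimulated with 1 ng/ml IL4 for 10 min. Cells were PFA-fixed, methanol-permeabilized and stained with Alexa-anti-phosphoSTAT6 (Y641); flow cytometry mean fluorescence gave percent inhibition of the IL4 signal.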
(In general: A flow cytometer gives signals particle by particle.)

The target in another experiment is Syk (Homo sapiens, UniProt P43405). In words: Syk IC50 (Table 1; method not given). It counts as biochemical.

Each structure is given as a SMILES string. Some results are limits rather than exact numbers.

T2 sequence (O60674 849-1124 limits assumed): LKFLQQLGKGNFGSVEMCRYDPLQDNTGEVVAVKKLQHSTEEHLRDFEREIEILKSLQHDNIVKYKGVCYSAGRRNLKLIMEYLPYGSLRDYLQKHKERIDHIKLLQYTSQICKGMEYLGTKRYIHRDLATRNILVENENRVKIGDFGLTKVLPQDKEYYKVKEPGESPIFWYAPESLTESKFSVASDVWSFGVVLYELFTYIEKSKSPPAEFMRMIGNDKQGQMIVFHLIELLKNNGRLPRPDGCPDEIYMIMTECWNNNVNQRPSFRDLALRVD

On to `CC(=O)Nc1cccc(Nc2ncc(C(N)=O)c(NCc3ccccc3)n2)c1` [Example 17, 2-(3-acetamidophenylamino)-4-(benzylamino)pyrimidine-5-carboxamide], for which the half-inhibitory concentration (IC50) on JAK1 was 10 to 100 nM; at JAK2, 1 to 10 nM; against JAK3 it was under 1 nM; on TYK2, 1 to 10 nM; on Syk it was 100 to 1000 nM. Also, the inhibition at 0.2 µM in experiment [1] was 34%. The inhibition at 1 µM in experiment [1] was 73.7%.

As for `NC(=O)c1cnc(Nc2cccc(NC(=O)C3CCC3)c2)nc1NC1CCCC1` [Example 20, 2-(3-(cyclobutanecarboxamido)phenylamino)-4-(cyclopentylamino)pyrimidine-5-carboxamide], the IC50 was in the range of 10 to 100 nM at JAK1; 10 to 100 nM against JAK2; 1 to 10 nM on JAK3; 1 to 10 nM against TYK2; 100 to 1000 nM against Syk. For the same molecule, in experiment [1], the inhibition at 0.2 µM stood at 41.3%. For the same molecule, the inhibition at 1 µM in experiment [1] came out at 89.6%.

`CCOC(=O)Nc1cccc(Nc2ncc(C(N)=O)c(NC3CCCC3)n2)c1` [Example 24, ethyl 3-(5-carbamoyl-4-(cyclopentylamino)pyrimidin-2-ylamino)phenylcarbamate]: the 50% inhibitory concentration (IC50) at JAK1 lay within 100 to 1000 nM; on JAK2, 100 to 1000 nM; at JAK3, 10 to 100 nM; against TYK2 it was 10 to 100 nM; against Syk it was 100 to 1000 nM. The inhibition at 0.2 µM in experiment [1] stood at 24.7%. Also, in experiment [1], the inhibition at 1 µM was found to be 71.3%.

`NC(=O)c1cnc(Nc2cccc(NC(=O)C3CC3)c2)nc1NCc1ccccc1` [Example 26, 4-(benzylamino)-2-(3-(cyclopropanecarboxamido)phenylamino)pyrimidine-5-carboxamide]: the IC50 was 100 to 1000 nM on JAK1; 10 to 100 nM at JAK2; 1 to 10 nM on JAK3; 1 to 10 nM at TYK2; over 1000 nM against Syk. In experiment [1], the inhibition at 0.2 µM came out at 7.3%. Also, the inhibition at 1 µM in experiment [1] was 45.7%.

For the molecule `NC(=O)c1cnc(Nc2cccc(NC(=O)C3CCC3)c2)nc1NCc1ccccc1` [Example 27, 4-(benzylamino)-2-(3-(cyclobutanecarboxamido)phenylamino)pyrimidine-5-carboxamide], the concentration for half-maximal inhibition (IC50) on JAK1 was 100 to 1000 nM; on JAK2, 10 to 100 nM; against JAK3 it was 1 to 10 nM; against TYK2 it was 10 to 100 nM; at Syk, over 1000 nM. Moreover, the inhibition at 0.2 µM in experiment [1] worked out at 7%. Besides, the inhibition at 1 µM in experiment [1] turned out to be 54.3%.

`CCC(=O)Nc1cccc(Nc2ncc(C(N)=O)c(NCc3ccccc3)n2)c1` [Example 28, 4-(benzylamino)-2-(3-propionamidophenylamino)pyrimidine-5-carboxamide]: the concentration for half-maximal inhibition (IC50) on JAK1 was 10 to 100 nM; against JAK2, 10 to 100 nM; at JAK3, 1 to 10 nM; at TYK2, 1 to 10 nM; at Syk, over 1000 nM. Further, in experiment [1], the inhibition at 0.2 µM came out at 32%. In addition, the inhibition at 1 µM in experiment [1] stood at 77.7%.

Regarding `COCC(=O)Nc1cccc(Nc2ncc(C(N)=O)c(NCc3ccccc3)n2)c1` [Example 29, 4-(benzylamino)-2-(3-(2-methoxyacetamido)phenylamino)pyrimidine-5-carboxamide], the IC50 is 10 to 100 nM at JAK1; 10 to 100 nM against JAK2; 1 to 10 nM on JAK3; 1 to 10 nM against TYK2; over 1000 nM at Syk. Moreover, the inhibition at 0.2 µM in experiment [1] was 37.5%. The inhibition at 1 µM in experiment [1] was 80%.

With `COC(=O)Nc1cccc(Nc2ncc(C(N)=O)c(NCc3ccccc3)n2)c1` [Example 30, methyl 3-(4-(benzylamino)-5-carbamoylpyrimidin-2-ylamino)phenylcarbamate], the half-inhibitory concentration (IC50) at JAK1 fell in the range of 100 to 1000 nM; on JAK2 it was 10 to 100 nM; against JAK3 it was 1 to 10 nM; at TYK2 it was 1 to 10 nM; on Syk, 100 to 1000 nM. Further, the inhibition at 0.2 µM in experiment [1] turned out to be 8.3%. For the same molecule, the inhibition at 1 µM in experiment [1] is 63%.

On to `CCOC(=O)Nc1cccc(Nc2ncc(C(N)=O)c(NCc3ccccc3)n2)c1` [Example 31, ethyl 3-(4-(benzylamino)-5-carbamoylpyrimidin-2-ylamino)phenylcarbamate], for which the IC50 on JAK1 is 100 to 1000 nM; against JAK2, 100 to 1000 nM; against JAK3, 1 to 10 nM; against TYK2, 10 to 100 nM; against Syk, over 1000 nM. For the same molecule, the inhibition at 0.2 µM in experiment [1] came out at 13.7%. In experiment [1], the inhibition at 1 µM is 37%.

For `COC(=O)Nc1cc(Nc2ncc(C(N)=O)c(NCc3ccccc3)n2)ccc1Cl` [Example 32, methyl 5-(4-(benzylamino)-5-carbamoylpyrimidin-2-ylamino)-2-chlorophenylcarbamate], the concentration for half-maximal inhibition (IC50) is 100 to 1000 nM at JAK1; 100 to 1000 nM against JAK2; 10 to 100 nM against JAK3; 10 to 100 nM against TYK2; over 1000 nM against Syk. Also, the inhibition at 0.2 µM in experiment [1] stood at 27%. Also, in experiment [1], the inhibition at 1 µM was found to be 65%.

With `NC(=O)Nc1cccc(Nc2ncc(C(N)=O)c(NCc3ccccc3)n2)c1` [Example 38, 4-(benzylamino)-2-(3-ureidophenylamino)pyrimidine-5-carboxamide], the IC50 fell in the range of 10 to 100 nM on JAK1; 10 to 100 nM at JAK2; 1 to 10 nM at JAK3; 1 to 10 nM against TYK2; 100 to 1000 nM on Syk. Further, in experiment [1], the inhibition at 0.2 µM is 41.3%. The inhibition at 1 µM in experiment [1] was found to be 82.7%.

As for `CNC(=O)Nc1cccc(Nc2ncc(C(N)=O)c(NCc3ccccc3)n2)c1` [Example 39, 4-(benzylamino)-2-(3-(3-methylureido)phenylamino)pyrimidine-5-carboxamide], the 50% inhibitory concentration (IC50) is 10 to 100 nM at JAK1; 10 to 100 nM against JAK2; 1 to 10 nM against JAK3; 1 to 10 nM at TYK2; over 1000 nM at Syk. For the same molecule, the inhibition at 0.2 µM in experiment [1] was determined as 15%. In addition, the inhibition at 1 µM in experiment [1] worked out at 60%.

For `CC(=O)Nc1cccc(Nc2ncc(C(N)=O)c(N[C@@H](C)C(N)=O)n2)c1` [Example 85, (S)-2-(3-acetamidophenylamino)-4-(1-amino-1-oxopropan-2-ylamino)pyrimidine-5-carboxamide], the IC50 is 100 to 1000 nM at JAK1; 100 to 1000 nM on JAK2; 10 to 100 nM against JAK3; 10 to 100 nM against TYK2; over 1000 nM at Syk.

On to `COCC(=O)N(C)c1cccc(Nc2ncc(C(N)=O)c(N[C@H](C)c3ccccc3)n2)c1` [Example 86, (R)-2-(3-(2-methoxy-N-methylacetamido)phenylamino)-4-(1-phenylethylamino)pyrimidine-5-carboxamide], for which the IC50 is 100 to 1000 nM at JAK1; 1 to 10 nM on JAK2; 1 to 10 nM against JAK3; 10 to 100 nM against TYK2; over 1000 nM at Syk.

Regarding `CC(=O)N(C)c1cccc(Nc2ncc(C(N)=O)c(N[C@H](C)c3ccccc3)n2)c1` [Example 87, (R)-2-(3-(N-methylacetamido)phenylamino)-4-(1-phenylethylamino)pyrimidine-5-carboxamide], the 50% inhibitory concentration (IC50) is 100 to 1000 nM on JAK1; 1 to 10 nM at JAK2; 1 to 10 nM against JAK3; 10 to 100 nM at TYK2; over 1000 nM against Syk.

`COCC(=O)N(C)c1cccc(Nc2ncc(C(N)=O)c(NC(C)C)n2)c1` [Example 88, 4-(isopropylamino)-2-(3-(2-methoxy-N-methylacetamido)phenylamino)pyrimidine-5-carboxamide]: the IC50 was 10 to 100 nM on JAK1; 10 to 100 nM on JAK2; 10 to 100 nM on JAK3; 10 to 100 nM on TYK2; over 1000 nM on Syk.

With `COCC(=O)N(C)c1cccc(Nc2ncc(C(N)=O)c(NC3CCCC3)n2)c1` [Example 89, 4-(cyclopentylamino)-2-(3-(2-methoxy-N-methylacetamido)phenylamino)pyrimidine-5-carboxamide], the IC50 was 10 to 100 nM on JAK1; 1 to 10 nM on JAK2; 1 to 10 nM on JAK3; 10 to 100 nM at TYK2; over 1000 nM against Syk.

Take `COCC(=O)N(C)c1cccc(Nc2ncc(C(N)=O)c(NCc3ccccc3)n2)c1` [Example 90, 4-(benzylamino)-2-(3-(2-methoxy-N-methylacetamido)phenylamino)pyrimidine-5-carboxamide]: the IC50 on JAK1 was 10 to 100 nM; at JAK2, 10 to 100 nM; on JAK3, 1 to 10 nM; against TYK2 it was 10 to 100 nM; against Syk it was over 1000 nM.
